From patent US20020137929A1, “1 - (3-heterocyclylphenyl) isothiourea, -isourea, -guanidine and -amidine herbicidal agents” (Intellectual Property Department, BASF Aktiengesellschaft, priority 1998, published 2002)

Columns and labels:
[1] = tested on: AMBEL (Ragweed, Common); assay: Postemergence herbicidal evaluation; type: in vivo, Ambrosia artemisifolia; conditions: for AMBEL herbicidal rating / Herbicidal rating AMBEL: postemergence
Procedure, shortened: (§1)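 ~2-wk seedlings; postemergence spray, 40 psi; vehicle 1:1 acetone:water + 0.5% Tween 20; rate ≈0.0156–0.500 kg/ha; greenhouse hold; scored 4–5 wk after treatment, 0–9 scale vs control; repeat tests averaged.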

[2] = tested on: CHEAL (Lambsquarters, Common); assay: Preemergence herbicidal evaluation; type: in vivo, Chenopodium album; conditions: rated 4-5 weeks after treatment
Procedure, shortened: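 Greenhouse preemergence test: seed-soil mix sown on ~1 inch soil; aqueous acetone spray at equivalent of ~0.0156–0.500 kg/ha; greenhouse-held and watered; scored 0–9 visually at 4–5 weeks.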

[3] = tested on: TRZAWR (Wheat, Winter, cv Riband); assay: Postemergence herbicidal evaluation; type: in vivo, Triticum aestivum; conditions: for TRZAWR herbicidal rating / Herbicidal rating TRZAWR: postemergence
Procedure, shortened: as §1

[4] = tested on: SAGPY (Arrowhead (Pygmaea)); assay: Postemergence weed control under flooded paddy conditions; type: in vivo, Sagittaria pygmaea; conditions: postemergence weeds
Procedure, shortened: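 Containers holding 3–5 cm weeds and rice at 1.5–2.5 leaves are flooded to 1.5–3 cm above soil. Compound in 50/50 v/v aqueous/acetone is then added directly to the water, about 0.0313–0.500 kg/ha. Plants are kept in the greenhouse and rated 0–9 visually at 3–4 weeks.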

[5] = tested on: GALAP (Galium); assay: Postemergence herbicidal evaluation; type: in vivo, Galium aparine; conditions: for GALAP herbicidal rating / Herbicidal rating GALAP: postemergence
Procedure, shortened: as §1

[6] = Rate 0.0313 kg/ha, rated 3 to 4 weeks after treatment
[7] = Rate 0.0625 kg/ha, rated 3 to 4 weeks after treatment
[8] = Rate 0.1250 kg/ha, rated 3 to 4 weeks after treatment
[9] = Rate 0.2500 kg/ha, rated 3 to 4 weeks after treatment

| Compound | AMBEL herbicidal rating ([1]; rate 0.0158 kg/ha) | AMBEL herbicidal rating ([1]; rate 0.0315 kg/ha) | AMBEL herbicidal rating ([1]; rate 0.0630 kg/ha) | Preemergence herbicidal rating CHEAL ([2]; rate 0.0156 kg/ha) | Preemergence herbicidal rating CHEAL ([2]; rate 0.0313 kg/ha) | Preemergence herbicidal rating CHEAL ([2]; rate 0.0625 kg/ha) | Preemergence herbicidal rating CHEAL ([2]; rate 0.1250 kg/ha) | Preemergence herbicidal rating CHEAL ([2]; rate 0.2500 kg/ha) | TRZAWR herbicidal rating ([3]; rate 0.0158 kg/ha) | TRZAWR herbicidal rating ([3]; rate 0.0315 kg/ha) | TRZAWR herbicidal rating ([3]; rate 0.0630 kg/ha) | Herbicidal rating SAGPY [4, 6] | Herbicidal rating SAGPY [4, 7] | Herbicidal rating SAGPY [4, 8] | Herbicidal rating SAGPY [4, 9] | GALAP herbicidal rating ([5]; rate 0.0158 kg/ha) | GALAP herbicidal rating ([5]; rate 0.0315 kg/ha) | GALAP herbicidal rating ([5]; rate 0.0630 kg/ha) | Preemergence herbicidal rating CHEAL ([2]; 0.0156 kg/ha) | Preemergence herbicidal rating CHEAL ([2]; 0.0313 kg/ha) | further results |
| --- | --- | --- | --- | --- | --- | --- | --- | --- | --- | --- | --- | --- | --- | --- | --- | --- | --- | --- | --- | --- | --- |
| COC(=O)C(Cc1ccc(Cl)cc1)N1C(=O)CSC1=Nc1cc(-n2c(=O)cc(C(F)(F)F)n(C)c2=O)c(F)cc1Cl (racemic) [Compound 77, Methyl α-(p-chlorobenzyl)-2-{{2-chloro-5-[3,6-dihydro-3-methyl-2,6-dioxo-4-(trifluoromethyl)-1(2H)-pyrimidinyl]-4-fluorophenyl}imino}-4-oxo-3-thiazolidineacetate, DL-] | 9.0 | 9.0 | 9.0 | 2.0 | 9.0 | 9.0 | 9.0 | 9.0 | 3.0 | 2.5 | 3.0 | 0.0 | 0.0 | 0.0 | 0.0 | 1.0 | 1.0 | 7.0 | – | – | – |
| CCOC(=O)CN1C(=O)C(Cc2ccccc2OC)SC1=Nc1cc(-n2c(=O)cc(C(F)(F)F)n(C)c2=O)c(F)cc1Cl (stereo not drawn) [Compound 37, Ethyl 2-{{2-chloro-5-[3,6-dihydro-3-methyl-2,6-dioxo-4-(trifluoromethyl)-1(2H)-pyrimidinyl]-4-fluorophenyl}imino}-5-(o-methoxybenzyl)-4-oxo-3-thiazolidineacetate] | – | – | – | – | – | – | 9.0 | 9.0 | – | – | – | – | – | – | – | – | – | – | – | – | Postemergence herbicidal rating AMBEL ([1]; Rate 0.0158 kg/ha): 3.0; Postemergence herbicidal rating AMBEL ([1]; Rate 0.0315 kg/ha): 9.0; Postemergence herbicidal rating AMBEL ([1]; Rate 0.0630 kg/ha): 9.0; Postemergence herbicidal rating TRZAWR ([3]; Rate 0.0158 kg/ha): 2.0; Postemergence herbicidal rating TRZAWR ([3]; Rate 0.0315 kg/ha): 2.0; Postemergence herbicidal rating TRZAWR ([3]; Rate 0.0630 kg/ha): 2.0; Herbicidal rating SAGPY ([4]; rate 0.0313 kg/ha, 3-4 weeks after treatment): 0.0; Herbicidal rating SAGPY ([4]; rate 0.0625 kg/ha, 3-4 weeks after treatment): 0.0; Herbicidal rating SAGPY ([4]; rate 0.1250 kg/ha, 3-4 weeks after treatment): 0.0; Herbicidal rating SAGPY ([4]; rate 0.2500 kg/ha, 3-4 weeks after treatment): 3.0; Postemergence herbicidal rating GALAP ([5]; Rate 0.0158 kg/ha): 1.0; Postemergence herbicidal rating GALAP ([5]; Rate 0.0315 kg/ha): 3.0; Postemergence herbicidal rating GALAP ([5]; Rate 0.0630 kg/ha): 4.0 |
| C[C@H](C(=O)O)N1C(=O)CSC1=Nc1cc(-n2c(=O)cc(C(F)(F)F)n(C)c2=O)c(F)cc1Cl [Compound 70, 2-{{2-Chloro-5-[3,6-dihydro-3-methyl-2,6-dioxo-4-(trifluoromethyl)-1(2H)-pyrimidinyl]-4-fluoro-phenyl}imino}-α-methyl-4-oxo-3-thiazolidineacetic acid, D-] | 6.0 | 6.0 | 7.0 | 2.0 | 9.0 | 9.0 | 9.0 | 9.0 | 2.5 | 4.0 | 5.5 | 4.0 | 4.0 | 4.0 | 4.0 | 0.0 | 0.0 | 3.0 | – | – | – |
| COC(=O)[C@@H](Cc1ccccc1)N1C(=O)CSC1=Nc1cc(-n2c(=O)cc(C(F)(F)F)n(C)c2=O)c(F)cc1Cl [Compound 74, Methyl α-benzyl-2-{{2-chloro-5-[3,6-dihydro-3-methyl-2,6-dioxo-4-(trifluoromethyl)-1(2H)-pyrimidinyl]-4-fluorophenyl}imino}-4-oxo-3-thiazolidineacetate, D-] | 9.0 | 9.0 | 9.0 | 9.0 | 9.0 | 9.0 | 9.0 | 9.0 | 3.5 | 4.5 | 6.0 | 3.0 | 3.0 | 3.0 | 9.0 | 1.0 | 4.0 | 9.0 | – | – | – |
| C[C@@H](C(=O)OC(C)(C)C)N1C(=O)CSC1=Nc1cc(-n2c(=O)cc(C(F)(F)F)n(C)c2=O)c(F)cc1Cl [Compound 75, tert-Butyl 2-{{2-chloro-5-[3,6-dihydro-3-methyl-2,6-dioxo-4-(trifluoromethyl)-1(2H)-pyrimidinyl]-4-fluorophenyl}imino}-α-methyl-4-oxo-3-thiazolidineacetate, L-] | 7.0 | 5.0 | 9.0 | 9.0 | 9.0 | 9.0 | 9.0 | 9.0 | 2.5 | 2.5 | 2.5 | 0.0 | 0.0 | 0.0 | 3.0 | 1.0 | 2.0 | 5.0 | – | – | – |
| Cn1c(C(F)(F)F)cc(=O)n(-c2cc(N=C3SCC(=O)N3C3CCC3)c(Cl)cc2F)c1=O [Compound 168, 3-{4-Chloro-5-[(3-cyclobutyl-4-oxo-2-thiazolidinylidene)amino]-2-fluorophenyl}-1-methyl-6-(trifluoromethyl)-2,4(1H,3H)-pyrimidinedione] | – | – | – | – | – | – | – | – | – | – | – | – | – | – | – | – | – | – | 3.0 | 9.0 | Herbicidal rating AMBEL ([1]; rate 0.0156 kg/ha): 3.0; Herbicidal rating AMBEL ([1]; rate 0.0313 kg/ha): 9.0; Herbicidal rating AMBEL ([1]; rate 0.0625 kg/ha): 9.0; Preemergence herbicidal rating CHEAL ([2]; 0.0625 kg/ha): 9.0; Preemergence herbicidal rating CHEAL ([2]; 0.1250 kg/ha): 9.0; Preemergence herbicidal rating CHEAL ([2]; 0.2500 kg/ha): 9.0; Herbicidal rating TRZAWR ([3]; rate 0.0156 kg/ha): 3.5; Herbicidal rating TRZAWR ([3]; rate 0.0313 kg/ha): 3.5; Herbicidal rating TRZAWR ([3]; rate 0.0625 kg/ha): 4.0; Herbicidal rating GALAP ([5]; rate 0.0156 kg/ha): 0.0; Herbicidal rating GALAP ([5]; rate 0.0313 kg/ha): 1.0; Herbicidal rating GALAP ([5]; rate 0.0625 kg/ha): 3.0 |
| CCOC(=O)CN1C(=O)C(CC(=O)O)SC1=Nc1cc(N2C(=O)CC(C(F)(F)F)CC2=O)c(F)cc1Cl (stereo not drawn) [Compound 170, 2-{{2-Chloro-5-[2,6-dioxo-4-(trifluoromethyl)-piperidino]-4-fluorophenyl}imino}-4-oxo-3,5-thiazolidinediacetic acid, 3-ethyl ester] | – | – | – | – | – | – | – | – | – | – | – | – | – | – | – | – | – | – | 9.0 | 9.0 | Herbicidal rating AMBEL ([1]; rate 0.0156 kg/ha): 9.0; Herbicidal rating AMBEL ([1]; rate 0.0313 kg/ha): 9.0; Herbicidal rating AMBEL ([1]; rate 0.0625 kg/ha): 9.0; Preemergence herbicidal rating CHEAL ([2]; 0.0625 kg/ha): 9.0; Preemergence herbicidal rating CHEAL ([2]; 0.1250 kg/ha): 9.0; Preemergence herbicidal rating CHEAL ([2]; 0.2500 kg/ha): 9.0; Herbicidal rating TRZAWR ([3]; rate 0.0156 kg/ha): 3.5; Herbicidal rating TRZAWR ([3]; rate 0.0313 kg/ha): 4.0; Herbicidal rating TRZAWR ([3]; rate 0.0625 kg/ha): 5.0; Herbicidal rating GALAP ([5]; rate 0.0156 kg/ha): 0.0; Herbicidal rating GALAP ([5]; rate 0.0313 kg/ha): 3.0; Herbicidal rating GALAP ([5]; rate 0.0625 kg/ha): 4.0 |
| COCCCN1C(=O)CSC1=Nc1cc(-n2c(=O)cc(C(F)(F)F)n(C)c2=O)c(F)cc1Cl [Compound 172, 3-{4-Chloro-2-fluoro-5-{[3-(3-methoxypropyl)-4-oxo-2-thiazolidinylidene]amino}phenyl}-1-methyl-6-(trifluoromethyl)-2,4(1H, 3H)-pyrimidinedione] | – | – | – | – | – | – | – | – | – | – | – | – | – | – | – | – | – | – | 9.0 | 9.0 | Postemergence herbicidal rating AMBEL ([1]; Rate 0.0313 kg/ha): 9.0; Postemergence herbicidal rating AMBEL ([1]; Rate 0.0625 kg/ha): 9.0; Postemergence herbicidal rating AMBEL ([1]; rate 0.0156 kg/ha): 6.0; Preemergence herbicidal rating CHEAL ([2]; 0.0625 kg/ha): 9.0; Preemergence herbicidal rating CHEAL ([2]; 0.1250 kg/ha): 9.0; Preemergence herbicidal rating CHEAL ([2]; 0.2500 kg/ha): 9.0; Postemergence herbicidal rating TRZAWR ([3]; Rate 0.0313 kg/ha): 4.5; Postemergence herbicidal rating TRZAWR ([3]; Rate 0.0625 kg/ha): 4.0; Postemergence herbicidal rating TRZAWR ([3]; rate 0.0156 kg/ha): 4.0; Postemergence herbicidal rating GALAP ([5]; Rate 0.0313 kg/ha): 4.0; Postemergence herbicidal rating GALAP ([5]; Rate 0.0625 kg/ha): 7.0; Postemergence herbicidal rating GALAP ([5]; rate 0.0156 kg/ha): 3.0 |
